# Assay results from patent US20210024756A1, “STABILIZED COPPER GLASS” (CORNING INCORPORATED, priority 2018, published 2021).
# System: E. coli
# Test: Minimum Inhibition Concentration, bacterial recovery grading
# Format: cell-based
# Set-up: key: −: No bacterial recovery.; +: Trace of contamination (<10colonies).; ++: Light contamination (>100 colonies).; +++: Heavy contamination (continuous smear of growth)
# Settings: E. coli OD 0.441, 2.68 × 10^8 cell/mL
substance,measurement,setting,value
thiourea [Thiourea Ctrl],Bacterial growth (Minimum Inhibition Concentration),0.0001 ppm (mg/L),+++
same,Bacterial growth (Minimum Inhibition Concentration),0.001 ppm (mg/L),+++
same,Bacterial growth (Minimum Inhibition Concentration),0.01 ppm (mg/L),+++
same,Bacterial growth (Minimum Inhibition Concentration),0.1 ppm (mg/L),+++
same,Bacterial growth (Minimum Inhibition Concentration),1 ppm (mg/L),+++
same,Bacterial growth (Minimum Inhibition Concentration),10 ppm (mg/L),+++
same,Bacterial growth (Minimum Inhibition Concentration),100 ppm (mg/L),+++
same,Bacterial growth (Minimum Inhibition Concentration),1000 ppm (mg/L),+++
same,Bacterial growth (Minimum Inhibition Concentration),10000 ppm (mg/L),+++
same,Bacterial growth (Minimum Inhibition Concentration),100000 ppm (mg/L),+++
same,Bacterial growth (Minimum Inhibition Concentration),1000000 ppm (mg/L),−
